Test results from patent US9708314B2, “Heterocyclic amide compound” (NISSAN CHEMICAL INDUSTRIES, LTD., priority 2013, dated 2017).

Columns and labels:
Assay type in all cases: in vivo
Cyperus difformis = experiment: Test Example 3: herbicidal effect by application to foliage (Wagner pot, water depth 0.1-0.5 cm); settings: Nineteenth Table; for E (herbicidal effect grade): application to foliage
Method in brief: (§1)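 Alluvial soil in 1/10000 are Wagner pots, sown and grown 14 days in a 25–30 °C greenhouse. An emulsifiable concentrate diluted in water to the set dose (g/ha) was sprayed on stems and leaves. Effect scored three weeks later on a 0–5 scale: 5 = ≥90% herbicidal ratio, 0 = ≤5%.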

[1] = test system: Echinochloa crus-galli var. crus-galli; experiment: as above; settings: Nineteenth Table; for H (herbicidal effect grade): application to foliage
Method in brief: as §1

Leptochloa chinensis = experiment: as above; settings: Nineteenth Table; for D (herbicidal effect grade): application to foliage
Method in brief: as §1

[2] = test system: directly sowed Oryza sativa; experiment: Test Example 3: effect on crop by application to foliage (Wagner pot, water depth 0.1-0.5 cm); settings: Nineteenth Table; for b (effect on crop grade): application to foliage
Method in brief: as §1

Abutilon theophrasti = experiment: Test Example 4: herbicidal effect by application to foliage (diluvial soil, plastic box); settings: for M (Abutilon theophrasti) herbicidal effect: application to foliage, application herbicide amount 320 g/ha
Method in brief: (§2)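 Seeds sown in sterilized diluvial soil, covered ~1.5 cm, grown 14 days in greenhouse at 25° C. to 30° C. Emulsion formulation diluted in water to set rate (g/ha) and sprayed onto stems and leaves. Effect scored visually 3 weeks later on 0–5 scale (5 = ≥90% herbicidal ratio, 0 = ≤5%).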

Alopecurus myosuroides = experiment: as above; settings: for J (Alopecurus myosuroides) herbicidal effect: application to foliage, application herbicide amount 320 g/ha; for J: Application herbicide amount 320 g/ha
Method in brief: as §2

Apera spica-venti. = experiment: as above; settings: for L (Apera spica-venti.) herbicidal effect: application to foliage, application herbicide amount 320 g/ha; for L: Application herbicide amount 320 g/ha
Method in brief: as §2

Avena fatua = experiment: as above; settings: for I (Avena fatua) herbicidal effect: application to foliage, application herbicide amount 320 g/ha
Method in brief: as §2

Chenopodium album = experiment: as above; settings: for O (Chenopodium album) herbicidal effect: application to foliage, application herbicide amount 320 g/ha; for O: Application herbicide amount 320 g/ha
Method in brief: as §2

Digitaria ciliaris = experiment: as above; settings: for F (Digitaria ciliaris) herbicidal effect: application to foliage, application herbicide amount 320 g/ha; for F: Application herbicide amount 320 g/ha
Method in brief: as §2

[3] = test system: Echinochloa crus-galli var. crus-galli; experiment: as above; settings: for H (Echinochloa crus-galli var. crus-galli) herbicidal effect: application to foliage, application herbicide amount 320 g/ha; for H: Application herbicide amount 320 g/ha
Method in brief: as §2

Galium spurium = experiment: as above; settings: for Q (Galium spurium) herbicidal effect: application to foliage, application herbicide amount 320 g/ha; for Q: Application herbicide amount 320 g/ha
Method in brief: as §2

Lolium multiflorum Lam. = experiment: as above; settings: for K (Lolium multiflorum Lam.) herbicidal effect: application to foliage, application herbicide amount 320 g/ha; for K: Application herbicide amount 320 g/ha
Method in brief: as §2

Setaria viridis = experiment: as above; settings: for G (Setaria viridis) herbicidal effect: application to foliage, application herbicide amount 320 g/ha; for G: Application herbicide amount 320 g/ha
Method in brief: as §2

Veronica persica = experiment: as above; settings: for R (Veronica persica) herbicidal effect: application to foliage, application herbicide amount 320 g/ha; for R: Application herbicide amount 320 g/ha
Method in brief: as §2

[4] = application herbicide amount 320 g/ha
[5] = application herbicide amount 400 g/ha
[6] = Application herbicide amount 320 g/ha

SMILES	M (Abutilon theophrasti) herbicidal effect (Abutilon theophrasti)	J (Alopecurus myosuroides) herbicidal effect (Alopecurus myosuroides)	L (Apera spica-venti.) herbicidal effect (Apera spica-venti.)	I (Avena fatua) herbicidal effect (Avena fatua)	O (Chenopodium album) herbicidal effect (Chenopodium album)	F (Digitaria ciliaris) herbicidal effect (Digitaria ciliaris)	H (Echinochloa crus-galli var. crus-galli) herbicidal effect [3]	Q (Galium spurium) herbicidal effect (Galium spurium)	K (Lolium multiflorum Lam.) herbicidal effect (Lolium multiflorum Lam.)	G (Setaria viridis) herbicidal effect (Setaria viridis)	R (Veronica persica) herbicidal effect (Veronica persica)	E (Cyperus difformis) herbicidal ratio grade (Cyperus difformis; [5])	H (Echinochloa crus-galli var. crus-galli) herbicidal ratio grade [1, 5]	D (Leptochloa chinensis) herbicidal ratio grade (Leptochloa chinensis; [5])	b (directly sowed Oryza sativa) effect on crop grade [2, 5]	E (herbicidal effect grade) (Cyperus difformis; [4])	H (herbicidal effect grade) [1, 4]	D (herbicidal effect grade) (Leptochloa chinensis; [4])	b (effect on crop grade) [2, 4]	J (Alopecurus myosuroides)	other results
Cc1nnc(NC(=O)c2ccc(C(F)(F)F)n3cnnc23)o1 [1-001]	3 (Herbicidal ratio of 40% or more and less than 70%)	1 (Herbicidal ratio of 5% or more and less than 20%)	1 (Herbicidal ratio of 5% or more and less than 20%)	1 (Herbicidal ratio of 5% or more and less than 20%)	5 (Herbicidal ratio of 90% or more (almost completely withered))	4 (Herbicidal ratio of 70% or more and less than 90%)	4 (Herbicidal ratio of 70% or more and less than 90%)	4 (Herbicidal ratio of 70% or more and less than 90%)	1 (Herbicidal ratio of 5% or more and less than 20%)	3 (Herbicidal ratio of 40% or more and less than 70%)	4 (Herbicidal ratio of 70% or more and less than 90%)										E (Cyperus difformis) herbicidal ratio grade (Cyperus difformis; [4]): 4 (Herbicidal ratio of 70% or more and less than 90%); H (Echinochloa crus-galli var. crus-galli) herbicidal ratio grade [1, 4]: 5 (Herbicidal ratio of 90% or more (almost completely withered)); D (Leptochloa chinensis) herbicidal ratio grade (Leptochloa chinensis; [4]): 5 (Herbicidal ratio of 90% or more (almost completely withered)); b (directly sowed Oryza sativa) effect on crop grade [2, 4]: 0 (Herbicidal ratio of 5% or less (almost no effect))
Cc1nnc(NC(=O)c2ccc(C(F)(F)F)n3c(C(C)C)nnc23)o1 [1-004, 3-Isopropyl-N-(5-methyl-1,3,4-oxadiazol-2-yl)-5-(trifluoromethyl)-[1,2,4]triazolo[4,3-a]pyridine-8-carboxamide]	4 (Herbicidal ratio of 70% or more and less than 90%)	2 (Herbicidal ratio of 20% or more and less than 40%)	3 (Herbicidal ratio of 40% or more and less than 70%)	2 (Herbicidal ratio of 20% or more and less than 40%)	5 (Herbicidal ratio of 90% or more (almost completely withered))	5 (Herbicidal ratio of 90% or more (almost completely withered))	5 (Herbicidal ratio of 90% or more (almost completely withered))	1 (Herbicidal ratio of 5% or more and less than 20%)	2 (Herbicidal ratio of 20% or more and less than 40%)	4 (Herbicidal ratio of 70% or more and less than 90%)	4 (Herbicidal ratio of 70% or more and less than 90%)	5 (Herbicidal ratio of 90% or more (almost completely withered))	4 (Herbicidal ratio of 70% or more and less than 90%)	5 (Herbicidal ratio of 90% or more (almost completely withered))	0 (Herbicidal ratio of 5% or less (almost no effect))						
CCc1nnc(NC(=O)c2ccc(C(F)(F)F)n3c(C(C)C)nnc23)o1 [1-005]	4 (Herbicidal ratio of 70% or more and less than 90%)	0 (Herbicidal ratio of 5% or less (almost no effect))	0 (Herbicidal ratio of 5% or less (almost no effect))	1 (Herbicidal ratio of 5% or more and less than 20%)	5 (Herbicidal ratio of 90% or more (almost completely withered))	3 (Herbicidal ratio of 40% or more and less than 70%)	4 (Herbicidal ratio of 70% or more and less than 90%)	0 (Herbicidal ratio of 5% or less (almost no effect))	0 (Herbicidal ratio of 5% or less (almost no effect))	3 (Herbicidal ratio of 40% or more and less than 70%)	3 (Herbicidal ratio of 40% or more and less than 70%)	5 (Herbicidal ratio of 90% or more (almost completely withered))	2 (Herbicidal ratio of 20% or more and less than 40%)	5 (Herbicidal ratio of 90% or more (almost completely withered))	0 (Herbicidal ratio of 5% or less (almost no effect))						
Cc1nnc(NC(=O)c2ccc(C(F)(F)F)n3c(C4CC4)nnc23)o1 [1-010]	5 (Herbicidal ratio of 90% or more (almost completely withered))	2 (Herbicidal ratio of 20% or more and less than 40%)	2 (Herbicidal ratio of 20% or more and less than 40%)	3 (Herbicidal ratio of 40% or more and less than 70%)	5 (Herbicidal ratio of 90% or more (almost completely withered))	3 (Herbicidal ratio of 40% or more and less than 70%)	4 (Herbicidal ratio of 70% or more and less than 90%)	1 (Herbicidal ratio of 5% or more and less than 20%)	1 (Herbicidal ratio of 5% or more and less than 20%)	3 (Herbicidal ratio of 40% or more and less than 70%)	5 (Herbicidal ratio of 90% or more (almost completely withered))	4 (Herbicidal ratio of 70% or more and less than 90%)	5 (Herbicidal ratio of 90% or more (almost completely withered))	5 (Herbicidal ratio of 90% or more (almost completely withered))	0 (Herbicidal ratio of 5% or less (almost no effect))						
C=CC[S+]([O-])c1nnc2c(C(=O)Nc3nnc(C)o3)ccc(C(F)(F)F)n12 (stereo not shown) [1-074]																3 (Herbicidal ratio of 40% or more and less than 70%)	5 (Herbicidal ratio of 90% or more (almost completely withered))	4 (Herbicidal ratio of 70% or more and less than 90%)	0 (Herbicidal ratio of 5% or less (almost no effect))	0 (Herbicidal ratio of 5% or less (almost no effect))	L (Apera spica-venti.): 0 (Herbicidal ratio of 5% or less (almost no effect)); I (Avena fatua; [6]): 1 (Herbicidal ratio of 5% or more and less than 20%); O (Chenopodium album): 5 (Herbicidal ratio of 90% or more (almost completely withered)); F (Digitaria ciliaris): 4 (Herbicidal ratio of 70% or more and less than 90%); H [3]: 5 (Herbicidal ratio of 90% or more (almost completely withered)); Q (Galium spurium): 3 (Herbicidal ratio of 40% or more and less than 70%); K (Lolium multiflorum Lam.): 0 (Herbicidal ratio of 5% or less (almost no effect)); G (Setaria viridis): 4 (Herbicidal ratio of 70% or more and less than 90%); R (Veronica persica): 3 (Herbicidal ratio of 40% or more and less than 70%)
Cc1nnc(NC(=O)c2ccc(C(F)(F)F)n3c(CCS(C)(=O)=O)nnc23)o1 [1-085]																5 (Herbicidal ratio of 90% or more (almost completely withered))	5 (Herbicidal ratio of 90% or more (almost completely withered))	5 (Herbicidal ratio of 90% or more (almost completely withered))	3 (Herbicidal ratio of 40% or more and less than 70%)	3 (Herbicidal ratio of 40% or more and less than 70%)	M (Abutilon theophrasti; [6]): 5 (Herbicidal ratio of 90% or more (almost completely withered)); L (Apera spica-venti.): 3 (Herbicidal ratio of 40% or more and less than 70%); O (Chenopodium album): 5 (Herbicidal ratio of 90% or more (almost completely withered)); F (Digitaria ciliaris): 5 (Herbicidal ratio of 90% or more (almost completely withered)); H [3]: 5 (Herbicidal ratio of 90% or more (almost completely withered)); Q (Galium spurium): 4 (Herbicidal ratio of 70% or more and less than 90%); K (Lolium multiflorum Lam.): 3 (Herbicidal ratio of 40% or more and less than 70%); G (Setaria viridis): 5 (Herbicidal ratio of 90% or more (almost completely withered)); R (Veronica persica): 5 (Herbicidal ratio of 90% or more (almost completely withered))
